From patent US9149038B2, “4-amino-6-(heterocyclic)picolinates and 6-amino-2-(heterocyclic)pyrimidine-4-carboxylates and their use as herbicides” (Dow AgroSciences LLC, priority 2013, dated 2015)
Read-outs that look alike come from different tables or passages of the source.

Experiments:
[1] = test system: Key Broadleaf Weed and Crop Species; experiment: Post-Emergent Test II: postemergent herbicidal activity, visual rating after 14 d (Table 7); format: in vivo; conditions: post-emergence, 336 h; for pest or weed control at 35 g/ha: 35 g ai/ha; for pest or weed control at 70 g/ha: 70 g ai/ha; for pest or weed control at 140 g/ha: 140 g ai/ha
How it was run: (§1)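 Plants were raised in a greenhouse for 7-21 d and treated once at the first or second true leaf stage. Compounds, dissolved in 97:3 acetone:DMSO then diluted into an aqueous acetone/isopropanol/crop oil/Triton X-155 carrier, were applied by overhead track sprayer at 187 L/ha. After 14 d with subirrigation, injury was scored visually from 0 (none) to 100 (complete kill).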

[2] = test system: Key Grass and Sedge Weeds as well as Grass Crops; experiment: Post-Emergent Test II: postemergent herbicidal activity, visual rating after 14 d (Table 8); format: in vivo; conditions: post-emergence, 336 h; for pest or weed control at 35 g/ha: 35 g ai/ha; for pest or weed control at 70 g/ha: 70 g ai/ha; for pest or weed control at 140 g/ha: 140 g ai/ha
How it was run: as §1

[3] = lambsquarters (Chenopodium album), read-out: Visual Growth Reduction (%) 14 Days After Application CHEAL
[4] = oilseed rape, canola (Brassica napus), read-out: Visual Growth Reduction (%) 14 Days After Application BRSNN
[5] = redroot pigweed (Amaranthus retroflexus), read-out: Visual Growth Reduction (%) 14 Days After Application AMARE
[6] = sunflower (Helianthus annuus), read-out: Visual Growth Reduction (%) 14 Days After Application HELAN
[7] = velvetleaf (Abutilon theophrasti), read-out: Visual Growth Reduction (%) 14 Days After Application ABUTH
[8] = wild poinsettia (Euphorbia heterophylla), read-out: Visual Growth Reduction (%) 14 Days After Application EPHHL
[9] = barnyardgrass (Echinochloa crus-galli), read-out: Visual Growth Reduction (%) 14 Days After Application ECHCG
[10] = giant foxtail (Setaria faberi), read-out: Visual Growth Reduction (%) 14 Days After Application SETFA
[11] = maize, corn (Zea mays), read-out: Visual Growth Reduction (%) 14 Days After Application ZEAMX
[12] = rice (Oryza sativa), read-out: Visual Growth Reduction (%) 14 Days After Application ORYSA
[13] = wheat, spring (Triticum aestivum), read-out: Visual Growth Reduction (%) 14 Days After Application TRZAS
[14] = yellow nutsedge (Cyperus esculentus), read-out: Visual Growth Reduction (%) 14 Days After Application CYPES

| SMILES | pest or weed control at 35 g/ha [1, 3] [%] | pest or weed control at 70 g/ha [1, 3] [%] | pest or weed control at 140 g/ha [1, 3] [%] | pest or weed control at 35 g/ha [1, 4] [%] | pest or weed control at 70 g/ha [1, 4] [%] | pest or weed control at 140 g/ha [1, 4] [%] | pest or weed control at 35 g/ha [1, 5] [%] | pest or weed control at 70 g/ha [1, 5] [%] | pest or weed control at 140 g/ha [1, 5] [%] | pest or weed control at 35 g/ha [1, 6] [%] | pest or weed control at 70 g/ha [1, 6] [%] | pest or weed control at 140 g/ha [1, 6] [%] | pest or weed control at 35 g/ha [1, 7] [%] | pest or weed control at 70 g/ha [1, 7] [%] | pest or weed control at 140 g/ha [1, 7] [%] | pest or weed control at 35 g/ha [1, 8] [%] | pest or weed control at 70 g/ha [1, 8] [%] | pest or weed control at 140 g/ha [1, 8] [%] | pest or weed control at 35 g/ha [2, 9] [%] | pest or weed control at 70 g/ha [2, 9] [%] | further results |
| --- | --- | --- | --- | --- | --- | --- | --- | --- | --- | --- | --- | --- | --- | --- | --- | --- | --- | --- | --- | --- | --- |
| CC1(C)Oc2ccc(-c3nc(C(=O)O)c(Cl)c(N)c3F)cc2O1 [Compound 19] | 0 to 29 | 0 to 29 | 0 to 29 | 0 to 29 | 45 to 59 | 60 to 74 | 85 to 94 | 85 to 94 | 85 to 94 | 0 to 29 | 0 to 29 | 30 to 44 | 0 to 29 | 60 to 74 | 60 to 74 | 95 to 100 | 95 to 100 | 95 to 100 | 85 to 94 | 85 to 94 | pest or weed control at 140 g/ha [2, 9]: 95 to 100%; pest or weed control at 35 g/ha [2, 10]: 0 to 29%; pest or weed control at 70 g/ha [2, 10]: 0 to 29%; pest or weed control at 140 g/ha [2, 10]: 0 to 29%; pest or weed control at 35 g/ha [2, 11]: 60 to 74%; pest or weed control at 70 g/ha [2, 11]: 60 to 74%; pest or weed control at 140 g/ha [2, 11]: 60 to 74%; pest or weed control at 35 g/ha [2, 12]: 0 to 29%; pest or weed control at 70 g/ha [2, 12]: 0 to 29%; pest or weed control at 140 g/ha [2, 12]: 0 to 29%; pest or weed control at 35 g/ha [2, 13]: 0 to 29%; pest or weed control at 70 g/ha [2, 13]: 0 to 29%; pest or weed control at 140 g/ha [2, 13]: 0 to 29%; pest or weed control at 35 g/ha [2, 14]: 95 to 100%; pest or weed control at 70 g/ha [2, 14]: 95 to 100%; pest or weed control at 140 g/ha [2, 14]: 95 to 100% |
| COC(=O)c1nc(-c2ccc3c(c2)OC(C)O3)c(F)c(N)c1Cl (stereo not drawn) [Compound 20] | 0 to 29 | 30 to 44 | 75 to 84 | 0 to 29 | 0 to 29 | 30 to 44 | 60 to 74 | 95 to 100 | 95 to 100 | 60 to 74 | 75 to 84 | 85 to 94 | 30 to 44 | 60 to 74 | 95 to 100 | 45 to 59 | 85 to 94 | 85 to 94 | 60 to 74 | 75 to 84 | pest or weed control at 140 g/ha [2, 9]: 85 to 94%; pest or weed control at 35 g/ha [2, 10]: 45 to 59%; pest or weed control at 70 g/ha [2, 10]: 75 to 84%; pest or weed control at 140 g/ha [2, 10]: 85 to 94%; pest or weed control at 35 g/ha [2, 11]: 30 to 44%; pest or weed control at 70 g/ha [2, 11]: 45 to 59%; pest or weed control at 140 g/ha [2, 11]: 60 to 74%; pest or weed control at 35 g/ha [2, 12]: 0 to 29%; pest or weed control at 70 g/ha [2, 12]: 30 to 44%; pest or weed control at 140 g/ha [2, 12]: 30 to 44%; pest or weed control at 35 g/ha [2, 13]: 0 to 29%; pest or weed control at 70 g/ha [2, 13]: 0 to 29%; pest or weed control at 140 g/ha [2, 13]: 0 to 29%; pest or weed control at 35 g/ha [2, 14]: 45 to 59%; pest or weed control at 70 g/ha [2, 14]: 75 to 84%; pest or weed control at 140 g/ha [2, 14]: 85 to 94% |
| COC(=O)c1nc(-c2cc3c(cc2F)OC(F)(F)O3)c(F)c(N)c1F [Compound 21] | 0 to 29 | 0 to 29 | 0 to 29 | 0 to 29 | 0 to 29 | 0 to 29 | 0 to 29 | 0 to 29 | 0 to 29 | 45 to 59 | 45 to 59 | 60 to 74 | 0 to 29 | 0 to 29 | 0 to 29 | 0 to 29 | 0 to 29 | 0 to 29 | 0 to 29 | 0 to 29 | pest or weed control at 140 g/ha [2, 9]: 0 to 29%; pest or weed control at 35 g/ha [2, 10]: 0 to 29%; pest or weed control at 70 g/ha [2, 10]: 0 to 29%; pest or weed control at 140 g/ha [2, 10]: 60 to 74%; pest or weed control at 35 g/ha [2, 11]: 0 to 29%; pest or weed control at 70 g/ha [2, 11]: 0 to 29%; pest or weed control at 140 g/ha [2, 11]: 45 to 59%; pest or weed control at 35 g/ha [2, 12]: 0 to 29%; pest or weed control at 70 g/ha [2, 12]: 0 to 29%; pest or weed control at 140 g/ha [2, 12]: 0 to 29%; pest or weed control at 35 g/ha [2, 13]: 0 to 29%; pest or weed control at 70 g/ha [2, 13]: 0 to 29%; pest or weed control at 140 g/ha [2, 13]: 0 to 29%; pest or weed control at 35 g/ha [2, 14]: 0 to 29%; pest or weed control at 70 g/ha [2, 14]: 0 to 29%; pest or weed control at 140 g/ha [2, 14]: 0 to 29% |
